# Source: patent US20250275537A1, “CARBOXAMIDE APYRASE INHIBITORS” (Texas Crop Science, Inc., priority 2024, published 2025)
# Test system: apyrase
# Test: Apyrase inhibition assay (Method 1)
# Assay type: biochemical
# Conditions: inhibitor conc at 1 mM stock, 10 μl per well; 1 hr room temperature; rounded average of at least two assay results
# Experimental: Apyrase inhibitors useful as enhancers of pesticidal activity are assessed using an in vitro assay. The method of Windsor, Bio Techniques 33:1024-1030 (November 2002) was used as follows
# 96 well plates were used for the assay: (Greiner bio-one: REF-655901-96 well, PS, F-bottom, Clear, Non-binding)
# • Reaction Buffer: 60 mM Hepes, 3 mM MgCl2, 3 mM CaCl2 and 3 mM ATP (pH 6.5) • Development Buffer A: 2% aqueous ammonium molybdate • Development Buffer B: 11% ascorbic acid in 37.5% TCA in water • Stop buffer C: 2% trisodium citrate in 2% acetic acid solution in water • Add 100 μl of reaction buffer to each well. • Add 10 μl of DMSO (control) or inhibitor/compound or compounds such as N1915 or orthovanadate to each well. (use inhibitor conc at 1 mM; orthovanadate at 2 mM and N1915 at 1 mM) • Add 10 μl of apyrase (concentration based on optimization —Dilute 1 U/μl enzyme to different concentrations such as 0.1U, 0.05U, 0.0025, 0.001U, 0.0005U—to find a good range) • Incubate plate at room temperature for 1 hr • Mix development buffer A and B in the ratio of 1:1.5 (just before use). • Add 50 ul of A:B mix in each well (incubate for 2 mins) • Add 50 ul of C in each well • Measure/Read Absorbance of plate @630 nm
# Inhibitory data for the apyrase assay described above are provided for selected compounds in Table 3. In Table 3, D indicates inhibition of <10%.
# With reference to Table 3, percent inhibition of apyrase is reported as the rounded average of at least two assay results.
row,SMILES,% Inhibition of Apyrase
1,"O=C(Nc1ccccc1-c1ncc[nH]1)c1ccc(C(=O)NC2CC2)cc1 [Compound I-47, N^1-(2-(1H-imidazol-2-yl)phenyl)-N^4-cyclopropylterephthalamide]",D (D indicates inhibition of <10%)
2,"COc1ccccc1NC(=O)c1ccccc1C(=O)N(C)Cc1ccccc1 [Compound I-40, N^1-benzyl-N^2-(2-methoxyphenyl)-N1-methylphthalamide]",D (D indicates inhibition of <10%)
3,"CCCNC(=O)c1cccc(C(=O)Nc2ccc3c[nH]nc3c2)c1 [Compound I-52, N^1-(2H-indazol-6-yl)-N^3-propylisophthalamide]",D (D indicates inhibition of <10%)
4,"Cc1cc2c(cc1NC(=O)c1cccc(C(=O)Nc3ccccc3)c1)OCO2 [Compound I-64, N^1-(6-methylbenzo[d][1,3]dioxol-5-yl)-N^3-phenylisophthalamide]",B (B indicates inhibition of from 20% to 30%)
5,"O=C(Nc1cccc2c1CNC2=O)c1cccc(C(=O)Nc2cccc3c2CNC3=O)c1 [Compound I-54, N^1,N^3-bis(1-oxoisoindolin-4-yl)isophthalamide]",D (D indicates inhibition of <10%)
6,"CNC(=O)c1cccc(C(=O)Nc2ccc(C#N)c(C(F)(F)F)c2)c1 [Compound I-35, N^1-(4-cyano-3-(trifluoromethyl)phenyl)-N^3-methylisophthalamide]",C (C indicates inhibition of from 10% to 20%)
7,"CCn1cc2ccc(NC(=O)c3cccc(C(=O)NC)c3)cc2n1 [Compound I-22, N^1-(2-ethy1-2H-indazol-6-yl)-N^3-methylisophthalamide]",C (C indicates inhibition of from 10% to 20%)
8,"O=C1CCCc2cc(NC(=O)c3cccc(C(=O)Nc4ccc5c(c4)CCCC(=O)N5)c3)ccc2N1 [Compound I-36, N^1,N^3-bis(2-oxo-2,3,4,5-tetrahydro-1H-benzo[b]azepin-7-yl)isophthalamide]",C (C indicates inhibition of from 10% to 20%)
9,"O=C1CCCc2ccc(NC(=O)c3ccc4c(c3)C(=O)NCCO4)cc2N1 [Compound I-60, 5-oxo-N-(2-oxo-2,3,4,5-tetrahydro-1H-benzo[b]azepin-8-yl)-2,3,4,5-tetrahydrobenzo[f][1,4]oxazepine-7-carboxamide]",D (D indicates inhibition of <10%)
10,"Cn1nc(Cn2c(=O)c3ccccc3c(=O)n2C)cc1Cl [Compound I-26, 2-((5-chloro-1-methyl-1H-pyrazol-3-yl)methyl)-3-methyl-2,3-dihydrophthalazine-1,4-dione]",C (C indicates inhibition of from 10% to 20%)
11,"CSc1cccc(NC(=O)c2ccc(C(=O)Nc3cccc(SC)c3)cc2)c1 [Compound I-2, N^1,N^4-bis(3-(methylthio)phenyl)terephthalamide]",A (A indicates inhibition above 30%)
12,"CC1(C)NC(=O)N(c2cccc(NC(=O)c3cccc(C(=O)Nc4ccccc4)c3)c2)C1=O [Compound I-11, N^1-(3-(4,4-dimethyl-2,5-dioxoimidazolidin-1-yl)phenyl)-N^3-phenylisophthalamide]",B (B indicates inhibition of from 20% to 30%)
13,"CNC(=O)c1cccc(C(=O)Nc2ccc3[nH]c(=O)sc3c2)c1 [Compound I-50, N^1-methyl-N^3-(2-oxo-2,3-dihydrobenzo[d]thiazol-6-yl)isophthalamide]",D (D indicates inhibition of <10%)
14,"Cn1c(=O)c2ccccc2c(=O)n1Cc1nnc(C2CC2)o1 [Compound I-59, 2-((5-cyclopropyl-1,3,4-oxadiazol-2-yl)methyl)-3-methyl-2,3-dihydrophthalazine-1,4-dione]",D (D indicates inhibition of <10%)
15,"O=C(Nc1ccc2scnc2c1)c1ccc(C(=O)NC2CC2)cc1 [Compound I-41, N^1-(benzo[d]thiazol-5-yl)-N^4-cyclopropylterephthalamide]",D (D indicates inhibition of <10%)
16,"Cc1cc(C)c(NC(=O)c2ccc(C(=O)Nc3c(C)cc(C)cc3C)cc2)c(C)c1 [Compound I-51, N^1,N^4-dimesitylterephthalamide]",D (D indicates inhibition of <10%)
17,"O=C(Nc1cccc([N+](=O)[O-])c1)c1ccccc1C(=O)N1CCCC1 [Compound I-33, N-(3-nitrophenyl)-2-(pyrrolidine-1-carbonyl)benzamide]",C (C indicates inhibition of from 10% to 20%)
18,"O=C(Nc1ccc(OC(F)(F)C(F)F)cc1)c1cccc(C(=O)Nc2ccc(OC(F)(F)C(F)F)cc2)c1 [Compound I-62, N^1,N^3-bis(4-(1,1,2,2-tetrafluoroethoxy)phenyl)isophthalamide]",A (A indicates inhibition above 30%)
19,"O=C(NCc1cccc(-n2ccnc2)c1)c1ccc(C(=O)Nc2ccccc2)cc1 [Compound I-27, N^1-(3-(1H-imidazol-1-yl)benzyl)-N^4-phenylterephthalamide]",C (C indicates inhibition of from 10% to 20%)
20,"CC(C)Cn1c(=O)c2ccccc2c(=O)n1C [Compound I-15, 2-isobutyl-3-methyl-2,3-dihydrophthalazine-1,4-dione]",B (B indicates inhibition of from 20% to 30%)
21,"Cc1cnc(NC(=O)c2ccc(C(=O)Nc3ccccc3)cc2)[nH]1 [Compound I-38, N^1-(5-methyl-1H-imidazol-2-yl)-N^4-phenylterephthalamide]",D (D indicates inhibition of <10%)
22,"CN(C(=O)c1cccc(C(=O)Nc2cc(Br)ccc2F)c1)c1ccccc1 [Compound I-65, N^1-(5-bromo-2-fluorophenyl)-N3-methyl-N^3-phenylisophthalamide]",D (D indicates inhibition of <10%)
23,"COc1ccc(C)cc1NC(=O)c1ccccc1C(=O)N(C)C1CCCCC1 [Compound I-8, N^1-cyclohexyl-N^2-(2-methoxy-5-methylphenyl)-N^1-methylphthalamide]",A (A indicates inhibition above 30%)
24,"CNC(=O)c1cccc(C(=O)Nc2cccc(NC3CCCC3)c2)c1 [Compound I-44, N^1-(3-(cyclopentylamino)phenyl)-N^3-methylisophthalamide]",D (D indicates inhibition of <10%)
25,"Cc1cccc(CNC(=O)c2ccc(C(=O)Nc3cccc(-n4ccnn4)c3)cc2)c1 [Compound I-9, N^1-(3-(1H-1,2,3-triazol-1-yl)phenyl)-N^4-(3-methylbenzyl)terephthalamide]",A (A indicates inhibition above 30%)
26,"Nc1ccnc(CNC(=O)c2ccc(C(=O)Nc3ccccc3)cc2)n1 [Compound I-55, N^1-((4-aminopyrimidin-2-yl)methyl)-N^4-phenylterephthalamide]",D (D indicates inhibition of <10%)
27,"O=C(Nc1ccc(N2CCCC2=O)cc1)c1ccc(C(=O)Nc2ccc(N3CCCC3=O)cc2)cc1 [Compound I-46, N^1,N^4-bis(4-(2-oxopyrrolidin-1-yl)phenyl)terephthalamide]",D (D indicates inhibition of <10%)
